PMC9646836, “Tetrahydroquinolinone derivatives exert antiproliferative effect on lung cancer cells through apoptosis induction” (Scientific Reports, 2022)

How the values were obtained:
A549 cells = test: Apoptosis assay (Annexin V/7-AAD, flow cytometry); type: cell-based, human; conditions: A549, IC50 concentration
Method: To further explain the mechanism by which 4a induced cell death in cancer cells, a flow cytometric analysis was performed by dual-staining the cells with 7-aminoactinomycin D (7-AAD) and Annexin V-fluorescein isothiocyanate (FITC). Annexin-V is a Ca^2+-dependent protein with potent affinity to phosphatidylserine. During early apoptosis, cells lose plasma membrane asymmetry through, for example, the externalization of phosphatidylserine. Once exposed to the outside of the cell surface, phosphatidylserine can be recognized by Annexin-V, and quantified. On the other hand, 7-AAD is a dye that cannot penetrate the intact cell membrane, and allows differentiating between necrotic and late apoptotic cells from living and early apoptotic cells. […] Treatment with the tested compound for 24 h caused 3.9-fold augmentation in apoptosis [early: 7-AAD (–), Annexin V-FITC (+); late: 7-AAD (+), Annexin V-FITC (+)] in comparison to the vehicle.
(§1) Cells were seeded in a 5-cm^2 dish at a density of 15 × 10^5 cells per dish and allowed to attach overnight at 37 °C. Then, compounds at IC50 concentrations were added to the medium. After 6, 24, and 48 h, the cells were harvested and washed with PBS. Subsequently, the cells were resuspended in the binding buffer and stained with Annexin V Alexa Fluor™ 488 conjugate (#A13201; Thermo Fisher Scientific) for the apoptosis assay and with CellEvent™ Caspase-3/7 Green Flow Cytometry Assay Kit (#C10427; Thermo Fisher Scientific) for the activation of caspase-3/7, as per the manufacturer’s instructions. After incubation, the samples were immediately analyzed using a Guava EasyCyte 8 cell sorter (Merck Millipore) and FlowJo software v10. Each experiment was repeated three times.

MCF-7 = test: MTT cell viability assay, MCF-7; type: cell-based, human; conditions: Homo sapiens, MCF7, 72 h, mean ± SD, n = 3
Method: (§2) All new tetrahydroquinoline derivatives were assessed for cytotoxicity on a broad panel of cancer and normal cell lines, using the MTT assay. The half-inhibitory growth inhibitory concentration (IC50) values of each compound were calculated after 72 h of treatment and presented in Table 1. […] In this assay, the IC50 value of 5-FU and ETP was recorded as a positive control.
(§3) Non-small cell lung cancer cells A549 (CCL-185), breast cancer cells MCF-7 ([…]), hepatocarcinoma cells HepG2 ([…]), normal kidney cells HEK293 (CRL-1573), and osteosarcoma cells U-2 OS (HTB-96) were obtained from the American Type Culture Collection. HCT-116 cell line was kindly provided by prof. Bert Vogelstein (Johns Hopkins University, Howard Hughes Medical Institute, USA). The obtained A549 and MCF-7 cells were cultured in RPMI-1640 medium, HepG2 cells in Minimum Essential Medium Eagle medium, HEK-293 cells in Dulbecco’s Modified Eagle’s medium, and U-2 OS and HCT-116 cells in McCoy’s […] medium. All culture media were supplemented with 10% fetal bovine serum, 2 mM L-glutamine, and antibiotics (penicillin 62.6 µg/ml and streptomycin 40 µg/ml; Sigma-Aldrich). Both cancer and normal cells were cultured at 37 °C under a humidified atmosphere with 5% or 10% CO2 and routinely screened for Mycoplasma contamination. All materials and reagents were obtained from Corning unless stated otherwise.
(§4) The cytotoxic effect of the synthesized compounds was assessed by the MTT (4,5-dimethylthiazol-2-yl-2,5-diphenyltetrazoliumbromide; Sigma-Aldrich) assay. Briefly, the cells were seeded into 96-well transparent flat-bottom plates and allowed to attach overnight. On the next day, the cells were treated with compounds in the range of 0–50 µM for 72 h. Dimethyl sulfoxide (DMSO; Merck) and 5-fluorouracil (5-FU; Sigma-Aldrich) were used as a reference. After exposure to the compounds, 20 μl of the MTT solution at a concentration of 4 mg/ml was added to each well, and the plates were incubated again for 2–3 h at 37 °C. Next, the media in the wells was replaced with 100 μl DMSO to solubilize the formazan crystals. The absorbance was measured at 540 nm using an ASYS UVM340 microplate reader (Biochrom Ltd.). The IC50 value of the compounds was calculated using GraphPad Prism 9 software, based on the curves plotted with survival as a function of dose, averaged from three independent experiments.

HEK293 = test: MTT cell viability assay, HEK293 normal kidney cells; type: cell-based, human
Method: as §2, §3, §4

[1] = test system: caspase-3/7 in A549 cells; test: Caspase-3/7 activation (flow cytometry); type: cell-based, human; conditions: A549, IC50 concentration
Method: Apoptosis induction via both intrinsic and extrinsic pathways is mediated by caspase cascade events. Therefore, in this study, the ability of 4a to activate two effector caspases (caspase-3 and caspase-7) was evaluated by flow cytometry.
as §1

[2] = test system: apoptosis-related proteins in A549 cells; test: Western blotting of apoptosis-related proteins; type: cell-based, human
Method: The expression of apoptosis-related proteins was determined by Western blotting. Briefly, A549 cells were treated with compound 4a at its IC50 concentration for 6, 24, and 48 h. The cells treated with 1% v/v DMSO served as the negative control. The total protein content was extracted from the cells using the NP-40 cell lysis buffer (10 mM Tris–HCl pH 7.4, 10 mM NaCl, 3 mM MgCl2, 0.5% Nonidet P-40, cOmplete Mini EDTA-free Protease Inhibitor Cocktail). Then, 30 µg of protein extract was separated by 10% sodium dodecyl sulfate–polyacrylamide gel electrophoresis, and the separated proteins were transferred to microporous polyvinylidene difluoride membranes (Bio-Rad). The membranes were blocked with 5% bovine serum albumin in tris-buffered saline-Tween 20 (TBST) buffer (0.2 M Tris-base, 0.137 M NaCl, 0.1% Tween 20) for 1 h at RT, and incubated overnight with primary antibodies at 4 °C. The blots were washed three times with TBST and incubated with appropriate peroxidase-conjugated secondary antibodies for 1 h at RT. Then, the blots were washed in TBST for 30 min and developed using an enhanced chemiluminescence detection reagent kit (Thermo Fisher Scientific) and a ChemiDoc XRS + Imaging System (Bio-Rad). All materials and reagents were obtained from Sigma-Aldrich unless stated otherwise.

HepG2 = test: MTT cell viability assay, HepG2; type: cell-based; conditions: Homo sapiens, HepG2, 72 h, mean ± SD, n = 3
Method: as §2, §3, §4

[3] = A549, IC50 concentration, 6, 24, 48 h

IC50 (MCF-7): > 50 µM
IC50 (HepG2): > 50 µM
SMILES: O=c1[nH]c2c(c(-c3ccccc3)c1Cc1cccc3ccccc13)CCCC2 [Compound 4a, 3-(1-naphthylmethyl)-4-phenyl-5,6,7,8-tetrahydro-1H-quinolin-2-one]
increase in the fraction of early-apoptotic cells [7-AAD (–), Annexin V-FITC (+)] (A549 cells; 6 h, vs DMSO control): 14.03 ± 1.74%
augmentation in apoptosis (early + late) (A549 cells; 24 h, vs vehicle): 3.9 fold
percentage of apoptotic cells (A549 cells; 48 h): significant increase
IC50 (HEK293; Homo sapiens, HEK293, MTT, 72 h, normal kidney cells, mean ± SD, n = 3): 49 ± 2.21 µM
suppressive effect on human normal HEK293 kidney cells (HEK293; tested concentrations, compared to A549 and HCT-116): almost no suppressive effect
activation of caspase-3/7 ([1]; 24 and 48 h, vs vehicle): 3.9 ± 0.33 fold
increase in the activity of caspase-3/7 ([1]; 6 h): 2.32 ± 0.05 fold
PARP-1 band [2, 3]: proteolytic cleavage
caspase-3, caspase-8, and caspase-9 [2, 3]: cleaved into their corresponding catalytically active forms
expression of BAD protein [2, 3]: higher than that in the control group
expression of BAX protein [2, 3]: higher than that in the control group
expression of BCL-2 protein [2, 3]: significantly decreased
expression of BID [2, 3]: slightly activated
expression of AIF ([2]; A549, IC50 concentration, vs DMSO-treated control): remained unchanged
